The values below come from PubChem BioAssay (NCI).

Test systems include BT-549 breast; COLO 205 colon; EKVX NSCLC; K-562 leukemia; LOX IMVI melanoma; M14 melanoma; NCI-H522 lung; NCI/ADR-RES ovarian; OVCAR-8 ovarian; SNB-75 CNS.
What all share (test): inhibition of tumour cell growth, NCI panel, 48 h

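All cell lines were grown in 96-well plates and treated with compound for 48 hours. GI50: concentration for 50% inhibition of growth. Definition used: TGI = concentration required for complete inhibition of growth.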

For the compound `c1ccc(Nc2nc(-c3ccccn3)cs2)nc1`, the GI50 with BT-549 breast is 0.713 µM; in the assay on COLO 205 colon, 0.411 µM; with EKVX NSCLC it was 0.507 µM; in the assay with K-562 leukemia it was 0.413 µM; with LOX IMVI melanoma, 0.255 µM; in the assay with M14 melanoma, 0.258 µM. For the same compound, the GI50 was 0.253 µM in the assay on NCI-H522 lung, 0.103 µM with NCI/ADR-RES ovarian, 0.395 µM in the assay on OVCAR-8 ovarian and 3.03 µM in the assay on SNB-75 CNS. Also, the TGI with BT-549 breast is over 26 µM; in the assay with COLO 205 colon, 17.5 µM; with EKVX NSCLC, over 56.9 µM; in the assay on K-562 leukemia, over 57.2 µM; with LOX IMVI melanoma, 6.67 µM; in the assay on NCI-H522 lung, 15.1 µM. Moreover, the figures for the TGI with NCI/ADR-RES ovarian, in the assay with OVCAR-8 ovarian and with SNB-75 CNS were 2.89 µM, over 38.5 µM and over 100 µM, respectively.

With `O=C1C=CC(=Nc2ccccc2)c2ccccc21`, the TGI with BT-549 breast amounted to 28 µM; in the assay with COLO 205 colon, 20.3 µM; in the assay on EKVX NSCLC, 12.9 µM; with K-562 leukemia, 42.6 µM; in the assay with LOX IMVI melanoma, 16.9 µM; with M14 melanoma it was 18.6 µM. The TGI in the assay with NCI-H522 lung was 23.3 µM; with NCI/ADR-RES ovarian, 95.4 µM; in the assay on OVCAR-8 ovarian it was 24.6 µM; in the assay with SNB-75 CNS, 20 µM.

As for `CC[C@@H](C(=O)[C@H](C)[C@H](O)[C@@H](C)[C@H]1O[C@H]([C@@H](CC)C(=O)O)CC[C@H]1C)C1O[C@]2(C=C[C@@H](O)[C@]3(CC[C@@](C)([C@H]4CC[C@](O)(CC)[C@H](C)O4)O3)O2)[C@H](C)C[C@@H]1C` (some centres undefined), the GI50 in the assay with BT-549 breast was 0.239 µM; in the assay with COLO 205 colon, 0.203 µM; in the assay with EKVX NSCLC it was 0.362 µM; in the assay with K-562 leukemia it was 0.223 µM; in the assay on LOX IMVI melanoma, 0.706 µM; in the assay on M14 melanoma, 1.13 µM. For the same compound, the GI50 in the assay with NCI-H522 lung was 0.0961 µM; in the assay with NCI/ADR-RES ovarian, 0.562 µM; in the assay on OVCAR-8 ovarian, 1.6 µM; in the assay with SNB-75 CNS it was 0.777 µM. In addition, the TGI in the assay with BT-549 breast was 8.63 µM; in the assay with COLO 205 colon it was 4.68 µM; in the assay with EKVX NSCLC, 17.5 µM; with K-562 leukemia it was 7.06 µM; in the assay on LOX IMVI melanoma, 6.56 µM; in the assay with M14 melanoma, 2.89 µM. Further, the TGI is 2.51 µM in the assay with NCI-H522 lung, over 68.2 µM in the assay on NCI/ADR-RES ovarian, over 100 µM in the assay with OVCAR-8 ovarian and 4.63 µM in the assay with SNB-75 CNS.

Take `CC(=O)c1ccc(Nc2nc(Nc3ccc(F)cc3)nc(Nc3ccc(F)cc3)n2)cc1`: the GI50 in the assay with BT-549 breast is 10.1 µM; in the assay with COLO 205 colon, 5.61 µM; with EKVX NSCLC, 12.3 µM; in the assay with K-562 leukemia, 5.7 µM; in the assay with LOX IMVI melanoma, 18.2 µM; in the assay on M14 melanoma, 6.52 µM. Further, the GI50 in the assay with NCI-H522 lung was 10.4 µM; with NCI/ADR-RES ovarian, 5.5 µM; in the assay on OVCAR-8 ovarian, 6.91 µM; in the assay with SNB-75 CNS, 5.62 µM. Besides, the TGI with BT-549 breast is 31.5 µM; in the assay on COLO 205 colon, 43.7 µM; in the assay on EKVX NSCLC, 57.8 µM; with K-562 leukemia, over 100 µM; in the assay with LOX IMVI melanoma, over 100 µM; in the assay with M14 melanoma it was over 100 µM. For the same compound, the TGI worked out at 41.3 µM in the assay on NCI-H522 lung, 54.1 µM in the assay on NCI/ADR-RES ovarian, 24.8 µM in the assay with OVCAR-8 ovarian and 29.5 µM in the assay on SNB-75 CNS.

For `Cc1cccc2nc3cccc(C(=O)NCCNCCNCCNC(=O)c4cccc5nc6cccc(C)c6nc45)c3nc12`, the GI50 in the assay with BT-549 breast was 1.73 µM; in the assay with COLO 205 colon it was under 0.01 µM; in the assay with EKVX NSCLC it was 0.291 µM; in the assay on K-562 leukemia, under 0.01 µM; with LOX IMVI melanoma it was under 0.01 µM; in the assay on M14 melanoma, under 0.0241 µM. In addition, the GI50 in the assay with NCI-H522 lung is under 0.01 µM; in the assay on NCI/ADR-RES ovarian, 0.296 µM; in the assay on OVCAR-8 ovarian, under 0.01 µM; with SNB-75 CNS it was 0.181 µM. In addition, the TGI in the assay with BT-549 breast is 6.25 µM; in the assay with COLO 205 colon it was 0.7 µM; with EKVX NSCLC, 16.3 µM; in the assay with K-562 leukemia it was 9.37 µM; in the assay on LOX IMVI melanoma it was 0.53 µM; in the assay with M14 melanoma, 1.7 µM. The TGI was 0.159 µM with NCI-H522 lung, over 100 µM with NCI/ADR-RES ovarian, 1.14 µM in the assay on OVCAR-8 ovarian and 1.44 µM in the assay with SNB-75 CNS.

On to `CO[C@]12C=C/C(=C(/C(=O)OCc3cccnc3)C(=O)CCCCCCCC[C@@]3(OC)C=C/C(=C(/C(=O)OCc4cccnc4)C(=O)CCCCCCCC1)O3)O2`, for which the GI50 in the assay on BT-549 breast is 1.51 µM; in the assay with COLO 205 colon, 1.49 µM; in the assay on EKVX NSCLC it was 1.97 µM; in the assay on K-562 leukemia, 1.46 µM; in the assay on LOX IMVI melanoma, 0.585 µM; with M14 melanoma, 1.2 µM. Besides, the GI50 was 1.05 µM with NCI-H522 lung, 1.56 µM in the assay on NCI/ADR-RES ovarian, 0.959 µM in the assay with OVCAR-8 ovarian and 1.18 µM in the assay with SNB-75 CNS. Further, the TGI is 4.29 µM with BT-549 breast; 5.06 µM with COLO 205 colon; over 50 µM in the assay on EKVX NSCLC; over 50 µM in the assay on K-562 leukemia; 1.6 µM in the assay with LOX IMVI melanoma; 3.79 µM with M14 melanoma. For the same compound, the TGI in the assay on NCI-H522 lung was 2.85 µM; with NCI/ADR-RES ovarian, over 50 µM; with OVCAR-8 ovarian it was over 50 µM; in the assay with SNB-75 CNS, 4.05 µM.
